Test results published in the supplement of paper PMC10307832.

Columns and labels:
Assay in all cases: relative viability (nuclei count vs DMSO), 5 days (fraction); higher = more cells survive
Tanzisertib + Luminespib = compound: O[C@H]1CC[C@H](Nc2ncc3nc(Nc4c(F)cc(F)cc4F)n([C@H]4CCOC4)c3n2)CC1 [Tanzisertib] + CCNC(=O)c1noc(-c2cc(C(C)C)c(O)cc2O)c1-c1ccc(CN2CCOCC2)cc1 [Luminespib] (partner 0.01 µM)
In short: (§1)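 Lung cancer cell lines were seeded in 1536-well plates and dosed by pin tool the next day, with either a single drug or a fixed anchor-drug dose combined with five library-drug doses (not always all listed) spaced in √10 steps. Five days later, one step fixed the cells and stained their nuclei (final 0.05% Triton X-100, 1% formaldehyde, 1 ug/ml Hoechst), and nuclei were counted on 4× images. Relative viability is the nuclei count in treated wells divided by the count in vehicle wells, and each value is the median of duplicate plates.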

[1] = compound: C1CNCCC1C2=CC(=NN2)C3=CC=NC=C3 + Nc1nc2[nH]cc(CCc3ccc(C(=O)N[C@@H](CCC(=O)O)C(=O)O)cc3)c2c(=O)[nH]1 [Pemetrexed] (partner 0.2 µM)
In short: as §1

[2] = compound: C[C@@H](N)c1ccc(C(=O)Nc2ccnc3[nH]ccc23)cc1 + CC(C)C[C@H](NC(=O)[C@H](Cc1ccccc1)NC(=O)c1cnccn1)B(O)O [Bortezomib] (partner 0.002 µM)
In short: as §1

[3] = compound: C[C@@H](N)c1ccc(C(=O)Nc2ccnc3[nH]ccc23)cc1 + CCNC(=O)c1noc(-c2cc(C(C)C)c(O)cc2O)c1-c1ccc(CN2CCOCC2)cc1 [Luminespib] (partner 0.01 µM)
In short: as §1

| Cell Line | relative viability (Tanzisertib + Luminespib; first compound 0.08 µM) | relative viability (Tanzisertib + Luminespib; first compound 0.253 µM) | relative viability (Tanzisertib + Luminespib; first compound 0.8 µM) | relative viability (Tanzisertib + Luminespib; first compound 2.53 µM) | relative viability (Tanzisertib + Luminespib; first compound 8 µM) | relative viability ([1]; first compound 0.08 µM) | relative viability ([1]; first compound 0.8 µM) | relative viability ([1]; first compound 2.53 µM) | relative viability ([1]; first compound 8 µM) | relative viability ([2]; first compound 0.04 µM) | relative viability ([2]; first compound 0.1265 µM) | relative viability ([2]; first compound 0.4 µM) | relative viability ([2]; first compound 1.265 µM) | relative viability ([2]; first compound 4 µM) | relative viability ([3]; first compound 0.04 µM) | relative viability ([3]; first compound 0.1265 µM) | relative viability ([3]; first compound 0.4 µM) | relative viability ([3]; first compound 1.265 µM) | relative viability ([3]; first compound 4 µM) |
| --- | --- | --- | --- | --- | --- | --- | --- | --- | --- | --- | --- | --- | --- | --- | --- | --- | --- | --- | --- |
| HCC-44 | 1.14 | 1.12 | 1.09 | 1.07 | 1.13 | 0.678 | 0.659 | 0.64 | 0.613 | 0.863 | 0.871 | 0.959 | 1.08 | 0.78 | 0.922 | 1.11 | 1.31 | 1.21 | 0.486 |
| HCC-78 | – | – | – | – | – | 0.901 | – | 0.925 | 0.885 | 0.504 | 0.42 | 0.661 | 0.69 | 0.313 | – | – | – | – | – |
| HCC-366 | – | – | – | – | – | 0.212 | 0.193 | 0.146 | 0.173 | 1.16 | 1.08 | 1.15 | – | 1.15 | – | – | – | – | – |
| HCC-827 | 0.668 | 0.594 | 0.642 | 0.588 | 0.259 | 0.222 | 0.238 | 0.132 | 0.262 | 0.97 | 1.03 | 1.1 | 1.05 | 0.972 | 0.786 | 0.686 | 0.698 | 0.848 | 0.608 |
| HOP-62 | 0.966 | 0.924 | 0.886 | 0.91 | 0.883 | 0.312 | 0.336 | 0.272 | 0.335 | 0.983 | 0.62 | 0.675 | 0.49 | 0.922 | 0.732 | 0.812 | 0.94 | 0.893 | 0.817 |
| IA-LM | – | – | – | – | – | – | – | – | – | 0.977 | 0.87 | 1.08 | 1.07 | 0.677 | – | – | – | – | – |
| LC-2-ad | 1.15 | 1.04 | 1.03 | 1.07 | 1.05 | 0.261 | 0.291 | 0.273 | 0.281 | 1.06 | 1.05 | 1.01 | 1.03 | 0.817 | 0.864 | 0.987 | 0.837 | – | 0.659 |
| LK-2 | 0.224 | 0.187 | 0.191 | 0.192 | 0.181 | – | 0.263 | 0.295 | 0.267 | – | – | – | – | – | 0.202 | – | 0.218 | – | 0.238 |
| NCI-H358 | 0.302 | 0.282 | 0.5 | 0.29 | 0.318 | 0.181 | 0.176 | 0.178 | 0.157 | – | – | – | – | – | 0.231 | 0.213 | 0.348 | 0.237 | 0.364 |
| NCI-H522 | 1.38 | 1.27 | 0.966 | 1.16 | 1.17 | 0.844 | 1.13 | 0.934 | 1.26 | – | – | – | – | – | 1.34 | 1.06 | 1.59 | 1.02 | 0.885 |
| NCI-H727 | 0.365 | 0.345 | 0.339 | 0.375 | 0.728 | – | – | – | – | 1.09 | 1.05 | 1.38 | 0.67 | 1.12 | 0.341 | 0.516 | 0.425 | 0.285 | 0.363 |
| NCI-H1299 | – | – | – | – | – | – | – | – | – | 1.02 | 0.998 | 0.958 | 0.938 | 0.827 | – | – | – | – | – |
| NCI-H1395 | 0.786 | 0.525 | 0.632 | 0.717 | 0.547 | 0.782 | 0.803 | 1.03 | 0.861 | – | – | – | – | – | 0.662 | 0.716 | 0.64 | 0.669 | 0.685 |
| NCI-H1623 | 0.617 | 0.443 | 0.484 | 0.502 | 0.624 | – | – | – | – | – | – | – | – | – | 0.657 | 0.494 | 0.563 | 0.491 | 0.591 |
| NCI-H1648 | – | – | – | – | – | 0.671 | 0.57 | – | 0.828 | – | – | – | – | – | – | – | – | – | – |
| NCI-H1703 | – | – | – | – | – | – | – | – | – | 0.376 | 0.281 | 0.256 | – | 0.236 | – | – | – | – | – |
| NCI-H1793 | 0.174 | 0.216 | 0.2 | 0.165 | 0.216 | 0.805 | – | 0.929 | 0.974 | – | – | – | – | – | 0.165 | 0.184 | 0.178 | – | 0.183 |
| NCI-H1944 | 0.858 | 0.84 | 0.749 | 0.658 | 0.73 | 0.564 | 0.595 | 0.67 | 0.557 | – | – | – | – | – | 0.857 | 0.722 | 0.753 | 0.746 | 0.6 |
| NCI-H2170 | 0.857 | 0.739 | 0.633 | 0.684 | 0.78 | 0.269 | 0.283 | 0.288 | 0.266 | – | – | – | – | – | 0.735 | 0.708 | 0.623 | 0.649 | 0.502 |
| NCI-H2342 | 0.688 | 0.828 | 0.975 | 0.759 | 0.888 | 0.725 | 0.711 | 0.759 | 0.787 | – | – | – | – | – | 0.858 | 0.797 | 0.719 | 0.802 | 0.808 |
| SK-MES-1 | 0.718 | 0.692 | 0.698 | 0.75 | 0.499 | 0.985 | 0.9 | 0.989 | 0.94 | – | – | – | – | – | 0.834 | 0.796 | 0.752 | 0.585 | 0.714 |
| SW 900 | 0.169 | 0.188 | 0.151 | 0.207 | 0.168 | 0.497 | – | 0.5 | 0.454 | – | – | – | – | – | 0.185 | 0.214 | 0.152 | 0.172 | 0.152 |
